According to publication PMC7856678 (Bioorganic & medicinal chemistry, 2021):

Tests used:
[1] = tested on: TZM-bl/H9-HIV-1IIIB; assay: Cell-to-Cell HIV-1 transmission, CXCR4-tropic assay; format: cell-based; settings: Human immunodeficiency virus 1, TZM-bl
[2] = tested on: TZM-bl/Molt-HIV-1ADA; assay: Cell-to-Cell HIV-1 transmission, CCR5-tropic assay; format: cell-based; settings: Human immunodeficiency virus 1, TZM-bl
[3] = Cytotoxicity; format: cell-based; settings: human, TZM-bl cells
[4] = tested on: VSV-G pseudovirus; assay: microbe, parasite or virus in culture; format: cell-based
[5] = Cytotoxicity; format: cell-based; settings: human, U87-CD4-CXCR4 cells
[6] = Solubility of compounds for antiviral/cytotoxicity testing; format: physicochemical; settings: assays could not be performed
[7] = tested on: TZM-bl cells; settings: cited from earlier work
[8] = tested on: U87-CD4-CXCR4 cells; settings: cells of VSV-G assay; cited from earlier work

COc1cnc(-n2cnc(C)n2)c2[nH]cc(C(=O)C(=O)N3CCN(C(=O)c4ccccc4)CC3)c12 [BMS-626529]
IC50 [1]: 0.02 ± 0.005 µM | IC50 [2]: ~0.2 µM

N#Cc1ccc(-c2ccc(C(=O)N[C@@H](CN)c3nc(CO)cs3)[nH]2)cc1 [Compound 4, N-(2-Amino-1-(4-(hydroxymethyl)thiazol-2-yl)ethyl)-5-(4-cyanophenyl)-1H-pyrrole-2-carboxamide]
CC50 at 3 days [3]: > 82 µM

NC[C@H](NC(=O)c1ccc(-c2cc(F)c(Cl)c(F)c2)[nH]1)c1nc(CCO)cs1 [Compound 9, N-(2-Amino-1-(4-(2-hydroxyethyl)thiazol-2-yl)ethyl)-5-(4-chloro-3,5-difluorophenyl)-1H-pyrrole-2-carboxamide]
CC50 at 72 h [3]: 32.8 ± 1 µM

NC[C@H](NC(=O)c1ccc(-c2ccc(C(F)(F)F)cc2F)[nH]1)c1nc(CCO)cs1 [Compound 13, N-(2-Amino-1-(4-(2-hydroxyethyl)thiazol-2-yl)ethyl)-5-(2-fluoro-4-(trifluoromethyl)phenyl)-1H-pyrrole-2-carboxamide]
IC50 [4]: 11.9 ± 0.5 µM | CC50 at 3 days [5]: 33.5 ± 0.6 µM

NC[C@H](NC(=O)c1ccc(-c2ccc(C(F)(F)F)c(F)c2)[nH]1)c1nc(C(=O)O)cs1 [Compound 21, 2-[2-Amino-1-[[5-[3-fluoro-4-(trifluoromethyl)phenyl]-1H-pyrrole-2-carbonyl]amino]ethyl]thiazole-4-carboxylic acid]
Solubility [6]: Not soluble

NC[C@@H](NC(=O)c1ccc(-c2ccc(C(F)(F)F)c(F)c2)[nH]1)c1nc(C(=O)O)cs1 [Compound 22, 2-[2-Amino-1-[[5-[3-fluoro-4-(trifluoromethyl)phenyl]-1H-pyrrole-2-carbonyl]amino]ethyl]thiazole-4-carboxylic acid]
Solubility [6]: Not soluble

NC[C@@H](NC(=O)c1ccc(-c2ccc(C(F)(F)F)cc2)[nH]1)c1ncc(CO)s1 [NBD-14136]
CC50 [7]: 42.4 ± 1 µM | CC50 [8]: 46.3 ± 10.6 µM
